Test results from ChEMBL document CHEMBL4000220, “Optimization of spirocyclic proline tryptophan hydroxylase-1 inhibitors” (Bioorg Med Chem Lett, 2017).
Calls of active or inactive are those of the source. The rule behind the calls is not given here.

Assays:
Mus musculus = test: In vivo inhibition of TPH1 in mouse assessed as reduction in 5-HT level in intestinal mucosa at 50 mg/kg, po administered daily as single dose relative to control; format: functional
[1] = biological target: T1, Tryptophan 5-hydroxylase 1 (Homo sapiens, UniProt P17752)
T1 sequence (P17752 whole entry): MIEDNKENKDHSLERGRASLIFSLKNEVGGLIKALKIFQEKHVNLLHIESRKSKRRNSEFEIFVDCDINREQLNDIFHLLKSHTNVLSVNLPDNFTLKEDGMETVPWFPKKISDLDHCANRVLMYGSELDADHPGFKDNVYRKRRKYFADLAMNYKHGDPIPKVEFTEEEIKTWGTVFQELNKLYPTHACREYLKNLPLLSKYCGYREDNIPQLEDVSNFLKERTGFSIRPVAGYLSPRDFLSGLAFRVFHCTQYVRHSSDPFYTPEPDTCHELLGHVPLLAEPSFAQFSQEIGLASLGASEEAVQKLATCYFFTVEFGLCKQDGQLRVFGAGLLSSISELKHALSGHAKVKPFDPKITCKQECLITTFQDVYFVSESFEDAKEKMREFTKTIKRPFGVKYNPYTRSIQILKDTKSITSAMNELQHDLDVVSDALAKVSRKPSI
Description: Inhibition of TPH1 (unknown origin)

[2] = Drug level in rat hepatocytes treated with ethyl 8-(2-amino-6-((R)-1-(4-chloro-2-(3-methyl-1H-pyrazol-1-yl)phenyl)-2,2,2-trifluoroethoxy)pyrimidin-4-yl)-2,8-diazaspiro[4.5]decane-3-carboxylate; format: ADME, cell-based, Hepatocyte

Structure (SMILES) | inhibition (Mus musculus) | IC50 [1] | further results
CCOC(=O)[C@@H]1CC2(CCN(c3cc(O[C@H](c4ccc(-c5ccc6ncc(F)cc6c5)cc4)C(F)(F)F)nc(N)n3)CC2)CN1 | inactive |  | 
Nc1nc(O[C@H](c2ccc(-c3ccc4cnccc4c3)cc2)C(F)(F)F)cc(N2CCC3(CC2)CN[C@H](C(=O)O)C3)n1 | inactive | 25 nM | 
CCOC(=O)[C@@H]1CC2(CCN(c3cc(O[C@H](c4ccc(Cl)cc4)C(F)(F)F)nc(N)n3)CC2)CN1 | inactive |  | 
CCOC(=O)[C@@H]1CC2(CCN(c3cc(O[C@H](c4ccc(-c5ccc6c(C)n(C)nc6c5)cc4)C(F)(F)F)nc(N)n3)CC2)CN1 | inactive |  | 
Nc1nc(O[C@H](c2ccc(Cl)cc2-n2ccc(C(=O)O)n2)C(F)(F)F)cc(N2CCC3(CC2)CNC(C(=O)O)C3)n1 (some centres undefined) |  |  | Drug metabolism [2]: Metabolite_Detected
Nc1nc(O[C@H](c2ccc(Cl)cc2-c2cccc(N3CCCC3=O)c2)C(F)(F)F)cc(N2CCC3(CC2)CN[C@H](C(=O)O)C3)n1 |  | 77 nM | 
CS(=O)(=O)c1ccc(-c2cc(Cl)ccc2[C@@H](Oc2cc(N3CCC4(CC3)CN[C@H](C(=O)O)C4)nc(N)n2)C(F)(F)F)cc1 |  | 885 nM | 
Nc1nc(O[C@H](c2ccc(Cl)cc2-c2cccc(Cl)c2)C(F)(F)F)cc(N2CCC3(CC2)CN[C@H](C(=O)O)C3)n1 |  | 30 nM | 
Nc1nc(O[C@H](c2ccc(Cl)cc2-c2ccc(Cl)cc2)C(F)(F)F)cc(N2CCC3(CC2)CN[C@H](C(=O)O)C3)n1 |  | 53 nM | 
CCOC(=O)[C@@H]1CC2(CCN(c3cc(O[C@H](c4ccc(-c5ccc6cnccc6c5)cc4)C(F)(F)F)nc(N)n3)CC2)CN1 | inactive |  | 
CCOc1ccc(-c2cc(Cl)ccc2[C@@H](Oc2cc(N3CCC4(CC3)CN[C@H](C(=O)O)C4)nc(N)n2)C(F)(F)F)cc1Cl |  | 207 nM | 
Nc1nc(O[C@H](c2ccc(Cl)cc2-c2cccnc2)C(F)(F)F)cc(N2CCC3(CC2)CN[C@H](C(=O)O)C3)n1 |  | 65 nM | 
Nc1nc(O[C@H](c2ccc(Cl)cc2-n2ccc(CO)n2)C(F)(F)F)cc(N2CCC3(CC2)CNC(C(=O)O)C3)n1 (some centres undefined) |  |  | Drug metabolism [2]: Metabolite_Detected
Nc1nc(O[C@H](c2ccc(-c3ccc4[nH]ncc4c3)cc2)C(F)(F)F)cc(N2CCC3(CC2)CN[C@H](C(=O)O)C3)n1 | inactive | 32 nM | 
Nc1nc(O[C@H](c2ccc(Cl)cc2)C(F)(F)F)cc(N2CCC3(CC2)CN[C@H](C(=O)O)C3)n1 | inactive | 460 nM | 
Nc1nc(O[C@H](c2ccc(Cl)cc2-c2ccc(F)c(F)c2)C(F)(F)F)cc(N2CCC3(CC2)CN[C@H](C(=O)O)C3)n1 |  | 35 nM | 
CCOC(=O)[C@@H]1CC2(CCN(c3cc(O[C@H](c4ccc(-c5ccc6nc(SC)ccc6c5)cc4)C(F)(F)F)nc(N)n3)CC2)CN1 | inactive |  | 
Nc1nc(O[C@H](c2ccc(Cl)cc2-c2cc(F)cc(Cl)c2)C(F)(F)F)cc(N2CCC3(CC2)CN[C@H](C(=O)O)C3)n1 |  | 35 nM | 
Cc1cccc(-c2cc(Cl)ccc2[C@@H](Oc2cc(N3CCC4(CC3)CN[C@H](C(=O)O)C4)nc(N)n2)C(F)(F)F)n1 |  | 73 nM | 
CCOC(=O)[C@@H]1CC2(CCN(c3cc(O[C@H](c4ccc(-c5ccc6c(C)nn(C)c6c5)cc4)C(F)(F)F)nc(N)n3)CC2)CN1 | inactive |  | 
CCOC(=O)[C@@H]1CC2(CCN(c3cc(O[C@H](c4ccc(Cl)cc4-n4ccc(C)n4)C(F)(F)F)nc(N)n3)CC2)CN1 |  |  | inhibition in vivo at 50 mg/kg (Mus musculus): 61%
CCOC(=O)[C@@H]1CC2(CCN(c3cc(O[C@H](c4ccc(-c5ccc6[nH]ncc6c5)cc4)C(F)(F)F)nc(N)n3)CC2)CN1 | inactive |  | 

Structure (SMILES) | inhibition (Mus musculus) | IC50 [1] | further results
CCOC(=O)[C@@H]1CC2(CCN(c3cc(O[C@H](c4ccc(-c5ccc6c(c5)CCC(=O)N6)cc4)C(F)(F)F)nc(N)n3)CC2)CN1 | inactive |  | 
Cc1cc(-c2cc(Cl)ccc2[C@@H](Oc2cc(N3CCC4(CC3)CN[C@H](C(=O)O)C4)nc(N)n2)C(F)(F)F)ccc1Cl |  | 62 nM | 
CCOC(=O)[C@@H]1CC2(CCN(c3cc(O[C@H](c4ccc(-c5ccc6c(cnn6C)c5)cc4)C(F)(F)F)nc(N)n3)CC2)CN1 | inactive |  | 
Cc1ccn(-c2cc(-c3ccc(Cl)c(Cl)c3)ccc2[C@@H](Oc2cc(N3CCC4(CC3)CN[C@H](C(=O)O)C4)nc(N)n2)C(F)(F)F)n1 |  | 22 nM | 
CN(C)S(=O)(=O)c1cccc(-c2cc(Cl)ccc2[C@@H](Oc2cc(N3CCC4(CC3)CN[C@H](C(=O)O)C4)nc(N)n2)C(F)(F)F)c1 |  | 53 nM | 
Cc1nn(C)c2cc(-c3ccc([C@@H](Oc4cc(N5CCC6(CC5)CN[C@H](C(=O)O)C6)nc(N)n4)C(F)(F)F)cc3)ccc12 | inactive | 32 nM | 
CCOC(=O)[C@@H]1CC2(CCN(c3cc(O[C@H](c4ccc(-c5ccc(Cl)c(Cl)c5)cc4-n4ccc(C)n4)C(F)(F)F)nc(N)n3)CC2)CN1 |  |  | inhibition in vivo at 50 mg/kg (Mus musculus): 60%
Nc1nc(O[C@H](c2ccc(Cl)cc2-c2ccc(S(N)(=O)=O)cc2)C(F)(F)F)cc(N2CCC3(CC2)CN[C@H](C(=O)O)C3)n1 |  | 1130 nM | 
CCOC(=O)[C@@H]1CC2(CCN(c3cc(O[C@H](c4ccc(-c5ccc6c(c5)CCN(C)C6=O)cc4)C(F)(F)F)nc(N)n3)CC2)CN1 | inactive |  | 
Nc1nc(O[C@H](c2ccc(-c3ccc4c(c3)CCC(=O)N4)cc2)C(F)(F)F)cc(N2CCC3(CC2)CN[C@H](C(=O)O)C3)n1 | inactive | 28 nM | 
Nc1nc(O[C@H](c2ccc(-c3ccc4ncc(F)cc4c3)cc2)C(F)(F)F)cc(N2CCC3(CC2)CN[C@H](C(=O)O)C3)n1 | inactive | 40 nM | 
CSc1ccc2cc(-c3ccc([C@@H](Oc4cc(N5CCC6(CC5)CN[C@H](C(=O)O)C6)nc(N)n4)C(F)(F)F)cc3)ccc2n1 | inactive | 26 nM | 
N#Cc1cccc(-c2cc(Cl)ccc2[C@@H](Oc2cc(N3CCC4(CC3)CN[C@H](C(=O)O)C4)nc(N)n2)C(F)(F)F)c1 |  | 30 nM | 
Nc1nc(O[C@H](c2ccc(Cl)cc2-n2ccc(COS(=O)(=O)O)n2)C(F)(F)F)cc(N2CCC3(CC2)CNC(C(=O)O)C3)n1 (some centres undefined) |  |  | Drug metabolism [2]: Metabolite_Detected
CCOC(=O)[C@@H]1CC2(CCN(c3cc(O[C@H](c4ccc(-c5ccc(OC)cc5)cc4-n4ccc(C)n4)C(F)(F)F)nc(N)n3)CC2)CN1 |  |  | inhibition in vivo at 50 mg/kg (Mus musculus): 46%
CN1CCc2cc(-c3ccc([C@@H](Oc4cc(N5CCC6(CC5)CN[C@H](C(=O)O)C6)nc(N)n4)C(F)(F)F)cc3)ccc2C1=O | inactive | 39 nM | 
Cc1c2ccc(-c3ccc([C@@H](Oc4cc(N5CCC6(CC5)CN[C@H](C(=O)O)C6)nc(N)n4)C(F)(F)F)cc3)cc2nn1C | inactive | 37 nM | 
COc1ccc(-c2ccc([C@@H](Oc3cc(N4CCC5(CC4)CN[C@H](C(=O)O)C5)nc(N)n3)C(F)(F)F)c(-n3ccc(C)n3)c2)cc1 |  | 23 nM | 
Cc1ccn(-c2cc(-c3ccc(C)c(C)c3)ccc2[C@@H](Oc2cc(N3CCC4(CC3)CN[C@H](C(=O)O)C4)nc(N)n2)C(F)(F)F)n1 |  | 20 nM | 
Cn1ncc2cc(-c3ccc([C@@H](Oc4cc(N5CCC6(CC5)CN[C@H](C(=O)O)C6)nc(N)n4)C(F)(F)F)cc3)ccc21 | inactive | 30 nM | 
NC(=O)c1cccc(-c2cc(Cl)ccc2[C@@H](Oc2cc(N3CCC4(CC3)CN[C@H](C(=O)O)C4)nc(N)n2)C(F)(F)F)c1 |  | 40 nM | 
CS(=O)(=O)Nc1cccc(-c2cc(Cl)ccc2[C@@H](Oc2cc(N3CCC4(CC3)CN[C@H](C(=O)O)C4)nc(N)n2)C(F)(F)F)c1 |  | 51 nM | 
